Measurements from PMC10787068, “Targeting the Mitochondrial Chaperone TRAP1 Alleviates Vascular Pathologies in Ischemic Retinopathy” (Advanced Science, 2023).
Entries after “also recorded” stand apart in the source; their conditions may differ. Non-standard residues stand in square brackets, D forms with d. Residues, ends and D or L forms follow the SMILES beside them. *: point of attachment. Nle = CCCC[C@H](N)C(=O)O; Cbz = O=C(OCc1ccccc1)*

Tests used:
Assay type in all cases: cell-based, human
[1] = system: HIF1α; assay: HIF1α degradation in MIO‐M1 cells under hypoxia (western blotting); details: western blotting; for effect of co-treatment on HIF1α degradation triggered by TRAP1 inhibition: MIO‐M1 cells with gamitrinib or MitoQ, 6 h, hypoxia, BAPTA 10 µM, ALLN 10 µM
[2] = system: Trap1 KO MIO-M1 cells; assay: TRAP1 inhibitor effects in Trap1 KO MIO‐M1 cells
Experimental: MIO‐M1 Trap1 KO cell lines were generated using CRISPR/Cas9‐derived RNA‐guided endonucleases (Toolgen; Seoul, Republic of Korea). MIO‐M1 cells were co‐transfected with the Cas9 vector and TRAP1‐sgRNA expression vector (sgRNA sequence 1; 5′‐[…]‐3′ and sequence 2; 5′‐[…]‐3′) using jetPRIME transfection reagent (Polyplus; Illkirch‐Graffenstaden, France). Transfected cells were selected in culture medium containing […] puromycin (Sigma). Single‐cell colonies were collected using a cloning cylinder (I.D. × H 6.4 mm × 8 mm; Sigma) and analyzed using T7 endonuclease I to confirm Trap1 KO.
Supplementary Figure 16. Calpain-1 autolysis and HIF1α degradation in Trap1 […]
A) HIF1α degradation and calpain-1 autolysis in Trap1 knockout (KO) MIO-M1 cells. Trap1 KO MIO-M1 cells were generated as described in the Experimental Section and incubated in hypoxia for 6 hr, followed by analysis using western blotting. Under hypoxia, HIF1α degradation and autoproteolysis of calpain-1 were found in Trap1 KO MIO-M1 cells, when compared with wild type (WT) cells. […]
cell lines were established using MIO-M1 cells. WT and KO cells were incubated with MitoQ for 6 hr under hypoxia and analyzed by western blotting. Trap1 KO reduced the expression of […]
Quantification of the HIF1α protein level. HIF1α western blot density was analyzed and compared. Data are expressed as mean ± SEM from four independent experiments.
C) Cytoplasmic calcium concentration. WT and Trap1-KO MIO-M1 cells were labeled with […]
Fluo-4 AM, incubated with 3 μM gamitrinib or 1 μM MitoQ for 6 hr under hypoxia, collected, and analyzed by flow cytometry. Data information: Data are expressed as mean ± SEM.
Student t-test, ***P < 0.001; ns, not significant. […]

[3] = system: calpain; assay: Calpain activity assay in MIO‐M1 cells; details: 3 µM gamitrinib or 0.5 µM MitoQ, 6 h under hypoxia, fluorogenic calpain substrate, n = 4
Experimental: (§1) Figure 5 TRAP1 inhibition induces mPTP opening, mitochondrial calcium discharge, and calpain‐1 activation. A) Visualization of cytoplasmic calcium. Fluo‐4 AM‐labeled MIO‐M1 cells were incubated with the TRAP1 inhibitors gamitrinib and MitoQ^[ [32], [41] ^] for 6 h or thapsigargin for 30 min under hypoxia, and analyzed by confocal microscopy. Scale bars, 10 µm and 2 µm (inset). […] MIO‐M1 cells were treated with a TRAP1 inhibitor, 3 µM gamitrinib or 0.5 µM MitoQ, for 6 h under hypoxia (n = 4). Enzyme activity was measured using a fluorogenic calpain substrate as described in the Experimental Section. C) Restored HIF1α expression upon CypD inhibition. MIO‐M1 cells were incubated with control or CypD‐targeting siRNAs, treated with the TRAP1 inhibitor MitoQ for 6 h under hypoxia, harvested, and analyzed by western blotting. Black and red arrows indicate pro and autolyzed forms of calpain‐1, respectively. […] MIO‐M1 cells were incubated with TRAP1‐targeting siRNAs for 48 h, exposed to hypoxia for 6 h, harvested, and analyzed by qPCR (n = 4). […] Cells were then analyzed by flow cytometry to detect cytoplasmic calcium. […] MIO‐M1 cells were incubated with TRAP1 inhibitors, 3 µM gamitrinib, and 0.5 µM MitoQ, and a cell‐permeable calcium chelator, BAPTA (10 µM), for 6 h as indicated under hypoxia and analyzed by western blotting. […] Data information: Data are expressed as mean ± SEM. […]

[4] = system: calpain‐1; assay: Calpain‐1 activation (autolysis, western blotting) in MIO‐M1 cells; details: MIO‐M1 cells with 3 µM gamitrinib or 0.5 µM MitoQ, 6 h, hypoxia; BAPTA 10 µM, ALLN 10 µM
Experimental: as §1

[5] = system: MIO‐M1 cells; assay: Cytoplasmic calcium (Fluo‐4 AM) in MIO‐M1 cells; details: Fluo‐4 AM‐labeled MIO‐M1 cells under hypoxia; MitoQ 6 h, thapsigargin 30 min
Experimental: as §1

[6] = system: cytoplasmic Hsp90; assay: Cytoplasmic Hsp90 inhibition in MIO-M1 cells (western blotting); details: 6 hr
Experimental: Cells and tissue samples were lysed using RIPA buffer (50 mM Tris, pH 8.0, 150 mM NaCl, 1% NP‐40, and 0.25% N‐deoxycholate) containing protease and phosphatase inhibitor cocktails (Roche). Lysates were separated by SDS‐PAGE and transferred to PVDF membranes. The membranes were blocked with 10% skim milk prepared in TBST (TBS (50 mM Tris and 150 mM NaCl, pH 7.6) containing 0.05% Tween‐20) for 1 h at RT and incubated with primary antibodies in antibody diluent solution (TBS containing 3 mM sodium azide and 0.1% BSA) overnight at 4 °C. After washing with TBST, the membranes were incubated with secondary antibodies for 1 h in 10% skim milk prepared in TBST. Finally, the membranes were washed three times with TBST, treated with ECL solution (Bio‐Rad; Hercules, CA, USA), and analyzed using a LAS4000 system (GE Healthcare; Chicago, IL, USA).
inhibitor) and gamitrinib as indicated for 6 hr, harvested, and analyzed by western blotting.
C) Cytoplasmic Hsp90 inhibition. MIO-M1
cells were incubated with DMAG (an Hsp90 inhibitor) as indicated for 6 hr under normoxia
or hypoxia and analyzed by western blotting.

Compound: O=C(O)CCC(=O)O [succinate]
- effect of co-treatment on HIF1α degradation triggered by TRAP1 inhibition [1]: did not affect; also recorded: unaffected

Compound: COC(=O)CNC(=O)C(=O)OC [DMOG, dimethyloxalylglycine]
- effect of co-treatment on HIF1α degradation triggered by TRAP1 inhibition [1]: did not affect; also recorded: unaffected

Compound: gamitrinib
- cytosolic calcium concentration in Trap1−/− cells ([2]; 3 μM gamitrinib or 1 μM MitoQ, 6 hr under hypoxia, Fluo-4 AM flow cytometry): did not affect
- HIF1α expression in Trap1−/− cells ([2]; 6 hr under hypoxia, western blotting): did not affect
- calpain‐1 activation in Trap1−/− cells ([2]; hypoxia): did not affect
- calpain enzyme activity [3]: Calpain activation

Compound: CC(C)C[C@@H](C=O)NC(=O)[C@H](CC(C)C)NC(=O)[C@H](CC(C)C)NC(=O)OCc1ccccc1 [MG132] (Cbz-Leu-Leu-Leu-aldehyde)
- effect of co-treatment on HIF1α degradation triggered by TRAP1 inhibition [1]: completely restored; also recorded: completely blocked

Compound: CCCC[C@@H](C=O)NC(=O)[C@H](CC(C)C)NC(=O)[C@H](CC(C)C)NC(C)=O [ALLN] (Ac-Leu-Leu-[Nle]-aldehyde)
- effect of co-treatment on calpain‐1 activation triggered by TRAP1 inhibition [4]: fully reversed
- effect of co-treatment on HIF1α degradation triggered by TRAP1 inhibition [1]: fully reversed

Compound: C/C=C(/C)C(=O)O[C@H]1C(C)=C2[C@H]([C@@H]1OC(=O)CCCCCCC)[C@@](C)(OC(C)=O)C[C@H](OC(=O)CCC)[C@@]1(O)[C@H]2OC(=O)[C@@]1(C)O [thapsigargin]
- cytoplasmic calcium [5]: substantial calcium release

Compound: O=C(O)CN(CC(=O)O)c1ccccc1OCCOc1ccccc1N(CC(=O)O)CC(=O)O [BAPTA, 1,2‐bis (o‐aminophenoxy) ethane‐N, N, N', N'‐tetraacetic acid]
- effect of co-treatment on calpain‐1 activation triggered by TRAP1 inhibition [4]: fully reversed
- effect of co-treatment on HIF1α degradation triggered by TRAP1 inhibition [1]: fully reversed

Compound: CC(=O)N[C@@H](CSC(=O)[C@]1([C@@H](O)C(C)C)NC(=O)[C@H](C)[C@@H]1O)C(=O)O [lactacystin]
- effect of co-treatment on HIF1α degradation triggered by TRAP1 inhibition [1]: not effectively restored; also recorded: did not

Compound: CO[C@H]1/C=C\C=C(/C)C(=O)NC2=CC(=O)C(NCCN(C)C)=C(C[C@@H](C)C[C@H](OC)[C@H](O)[C@@H](C)/C=C(\C)[C@@H]1OC(N)=O)C2=O [DMAG, 17‐Dimethyl‐aminothylamino‐17‐demethoxy‐geldanamycin]
- stability of HIF1α ([1]; MIO-M1 cells, 6 hr under normoxia or hypoxia): did not affect
- stress response protein Hsp70 level [6]: upregulated
